Results published in patent US6887888B2, “Soluble compositions of triphenylethylene antiestrogens” (Orion Corporation, priority 1998, dated 2005).
Structures can show the parent of a compound that is named as a salt. Where two headings read alike, the source gives them in different places.

Assay: Solubility of toremifene citrate in solvent (reference)
Assay type: physicochemical

## CN(C)CCOc1ccc(/C(=C(/CCCl)c2ccccc2)c2ccccc2)cc1 [toremifene citrate]
0.1 M HCl, simulated gastric fluid, read-out: Solubility in 0.1 M HCl
  solubility: ~30 µg/mL
ethanol, organic solvent or mixture, read-out: Solubility in ethanol
  solubility: ~3000 µg/mL
